Results from US7713914B2 (priority 2005, dated 2010).

Key:
Bacillus cereus spores = format: cell-based
[1] = Solubility of DPA in water; format: physicochemical
[2] = test system: Bacillus anthracis endospores

With `CCCCCCCCCCCCN` [DDA, dodecylamine, reference compound] the “Exposure required before a reasonable DPA SERS signal was observed” value (Bacillus cereus spores) was 1 h.

With `O=C(O)c1cccc(C(=O)O)n1` [DPA, dipicolinic acid] the Solubility in water [1] was “only slightly soluble”.

In the case of `O=CO` [formic acid], the “SERS of DPA (CaDPA release at room temperature)” value (“SERS of DPA” for short) (Bacillus cereus spores) is reported as “observed”.

For `CC(=O)O` [glacial acetic acid, acetic acid], the “DPA concentration calculated from 1008 cm-1 peak” value ([2]; Example 1, hypothetical 1000 spores, 50 microL, 1 minute) was 20±10 ng per 1 mL and the “Time in which most, if not all, of the CaDPA is released” value ([2]; acid dispensed onto surface) was 1 to 5 min.

In the case of `CC(O)C(=O)O` (stereo not shown) [lactic acid], the “SERS of DPA” value (Bacillus cereus spores) is reported as “observed”.

For `O=C(O)C(F)(F)F` [trifluoroacetic acid], the “SERS of DPA” value (Bacillus cereus spores) was “observed”.
